ChEMBL document CHEMBL1201862, “PubChem BioAssay data set” (2004)
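Tested at 5 concentrations; 48 h exposure; 96-well plates; endpoints linearly interpolated, else capped at highest concentration. GI50 marks 50% less growth.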 The source made the active and inactive calls. Rule as the data show it: active = GI50 up to about 1.1 µM and inactive = higher.

Assays:
Test in all cases: DTP human tumour cell line panel, 48 h
786-0 = system: 786-0
A498 = system: A498
A549 = system: A549
ACHN = system: ACHN
CAKI-1 = system: CAKI-1
CCRF-CEM = system: CCRF-CEM
COLO 205 = system: COLO 205
DU-145 = system: DU-145
EKVX = system: EKVX
HCC 2998 = system: HCC 2998
HCT-116 = system: HCT-116
HCT-15 = system: HCT-15
HL-60 = system: HL-60
HOP-62 = system: HOP-62
HOP-92 = system: HOP-92
HT-29 = system: HT-29
Hs-578T = system: Hs-578T
IGROV-1 = system: IGROV-1
K562 = system: K562
KM12 = system: KM12
LOX IMVI = system: LOX IMVI
M14 = system: M14
MCF7 = system: MCF7
MDA-MB-231 = system: MDA-MB-231
MDA-MB-435 = system: MDA-MB-435
MDA-N = system: MDA-N
MOLT-4 = system: MOLT-4
Malme-3M = system: Malme-3M
NCI-H226 = system: NCI-H226
NCI-H23 = system: NCI-H23
NCI-H522 = system: NCI-H522
NCI/ADR-RES = system: NCI/ADR-RES
OVCAR-4 = system: OVCAR-4
OVCAR-5 = system: OVCAR-5
OVCAR-8 = system: OVCAR-8
PC-3 = system: PC-3
RPMI-8226 = system: RPMI-8226
RXF 393 = system: RXF 393
SF-268 = system: SF-268
SF-295 = system: SF-295
SF-539 = system: SF-539
SK-MEL-28 = system: SK-MEL-28
SK-MEL-2 = system: SK-MEL-2
SK-MEL-5 = system: SK-MEL-5
SK-OV-3 = system: SK-OV-3
SN12C = system: SN12C
SNB-19 = system: SNB-19
SNB-75 = system: SNB-75
SR = system: SR
SW-620 = system: SW-620
T47D = system: T47D
TK-10 = system: TK-10
U-251 = system: U-251
UACC-257 = system: UACC-257
UACC-62 = system: UACC-62
UO-31 = system: UO-31
NCI-H460 = system: NCI-H460
OVCAR-3 = system: OVCAR-3
BT-549 = system: BT-549

With `CCCC1C(CC)C(NC)C(C#N)(C#N)C1(C#N)C#N` (stereo not drawn) the GI50 (786-0) was 15.4 µM (inactive), the GI50 (A498) was 15.6 µM (inactive) and the GI50 (A549) was 34.8 µM (inactive). The GI50 (ACHN) was 18.1 µM (inactive), the GI50 (CAKI-1) was 11.4 µM (inactive) and the GI50 (CCRF-CEM) was 13.1 µM (inactive). For the same molecule, the GI50 (COLO 205) was 12.8 µM (inactive), the GI50 (DU-145) was 14.2 µM (inactive) and the GI50 (EKVX) was 25.2 µM (inactive). For the same molecule, the GI50 (HCC 2998) was 18 µM (inactive), the GI50 (HCT-116) was 15.1 µM (inactive) and the GI50 (HCT-15) was 13.2 µM. The GI50 (HL-60) was 20.4 µM (inactive), the GI50 (HOP-62) was 15 µM (inactive) and the GI50 (HOP-92) was 14 µM (inactive). For the same molecule, the GI50 (HT-29) was 13.6 µM (inactive), the GI50 (Hs-578T) was 25.9 µM (inactive) and the GI50 (IGROV-1) was 15.7 µM (inactive). For the same molecule, the GI50 (K562) was 23.7 µM (inactive), the GI50 (KM12) was 16.4 µM (inactive) and the GI50 (LOX IMVI) was 16.3 µM (inactive). For the same molecule, the GI50 (M14) was 35.6 µM (inactive), the GI50 (MCF7) was 23.5 µM (inactive) and the GI50 (MDA-MB-231) was 15.2 µM (inactive). The GI50 (MDA-MB-435) was 25.3 µM (inactive), the GI50 (MDA-N) was 16 µM (inactive) and the GI50 (MOLT-4) was 24.1 µM (inactive). For the same molecule, the GI50 (Malme-3M) was 21.2 µM (inactive), the GI50 (NCI-H226) was 2.88 µM (inactive) and the GI50 (NCI-H23) was 21.4 µM (inactive). The GI50 (NCI-H522) was 13.9 µM (inactive), the GI50 (NCI/ADR-RES) was 17.9 µM (inactive) and the GI50 (OVCAR-4) was 28.2 µM (inactive). For the same molecule, the GI50 (OVCAR-5) was 33.7 µM (inactive), the GI50 (OVCAR-8) was 20.7 µM (inactive) and the GI50 (PC-3) was 18.1 µM (inactive). The GI50 (RPMI-8226) was 17.1 µM (inactive), the GI50 (RXF 393) was 13.1 µM (inactive) and the GI50 (SF-268) was 16.5 µM (inactive). The GI50 (SF-295) was 17.2 µM (inactive), the GI50 (SF-539) was 16.8 µM (inactive) and the GI50 (SK-MEL-28) was 30.2 µM (inactive). For the same molecule, the GI50 (SK-MEL-2) was 18.9 µM (inactive), the GI50 (SK-MEL-5) was 12.1 µM (inactive) and the GI50 (SK-OV-3) was > 100 µM (inactive). For the same molecule, the GI50 (SN12C) was 15.1 µM (inactive), the GI50 (SNB-19) was 22.5 µM (inactive) and the GI50 (SNB-75) was 10 µM (inactive). The GI50 (SR) was 16.9 µM (inactive), the GI50 (SW-620) was 36.8 µM (inactive) and the GI50 (T47D) was 14.5 µM (inactive). The GI50 (TK-10) was 16.9 µM (inactive), the GI50 (U-251) was 28.1 µM (inactive) and the GI50 (UACC-257) was 16.7 µM (inactive). The GI50 (UACC-62) was 17.5 µM (inactive) and the GI50 (UO-31) was 14.6 µM (inactive).
In the case of `O=[N+]([O-])/C(Cl)=C(\Sc1ccccc1)C(Cl)=C(Cl)Cl`, the GI50 (786-0) is reported as 0.308 µM (active), the GI50 (A498) is reported as 1.72 µM (inactive) and the GI50 (A549) is reported as 0.229 µM (active). For the same molecule, the GI50 (ACHN) was 1.66 µM (inactive), the GI50 (CAKI-1) was 1.83 µM (inactive) and the GI50 (CCRF-CEM) was 0.296 µM (active). The GI50 (COLO 205) was 0.282 µM (active), the GI50 (DU-145) was 1.71 µM (inactive) and the GI50 (EKVX) was 2.04 µM (inactive). For the same molecule, the GI50 (HCC 2998) was 1.93 µM (inactive), the GI50 (HCT-116) was 0.147 µM (active) and the GI50 (HCT-15) was 0.42 µM. The GI50 (HL-60) was 0.273 µM (active), the GI50 (HOP-62) was 2.06 µM (inactive) and the GI50 (HOP-92) was 1.91 µM (inactive). The GI50 (HT-29) was 0.355 µM (active), the GI50 (Hs-578T) was 0.562 µM (active) and the GI50 (IGROV-1) was 1.28 µM (inactive). For the same molecule, the GI50 (K562) was 0.294 µM (active), the GI50 (KM12) was 1.79 µM (inactive) and the GI50 (LOX IMVI) was 0.207 µM (active). The GI50 (M14) was 0.188 µM (active), the GI50 (MCF7) was 0.159 µM (active) and the GI50 (MDA-MB-231) was 0.264 µM (active). For the same molecule, the GI50 (MDA-MB-435) was 0.22 µM (active), the GI50 (MDA-N) was 0.288 µM (active) and the GI50 (MOLT-4) was 0.348 µM (active). The GI50 (Malme-3M) was 0.647 µM (active), the GI50 (NCI-H226) was 2.23 µM (inactive) and the GI50 (NCI-H23) was 0.473 µM (active). For the same molecule, the GI50 (NCI-H460) was 1.54 µM (inactive), the GI50 (NCI-H522) was 0.26 µM (active) and the GI50 (NCI/ADR-RES) was 0.216 µM (active). The GI50 (OVCAR-3) was 1.52 µM (inactive), the GI50 (OVCAR-4) was 1.49 µM (inactive) and the GI50 (OVCAR-5) was 1.86 µM (inactive). The GI50 (OVCAR-8) was 0.191 µM (active), the GI50 (PC-3) was 2.01 µM (inactive) and the GI50 (RPMI-8226) was 0.242 µM (active). The GI50 (RXF 393) was 0.975 µM (active), the GI50 (SF-268) was 1.4 µM (inactive) and the GI50 (SF-295) was 3.43 µM (inactive). The GI50 (SF-539) was 1.56 µM (inactive), the GI50 (SK-MEL-28) was 1.41 µM (inactive) and the GI50 (SK-MEL-2) was 1.77 µM (inactive). For the same molecule, the GI50 (SK-MEL-5) was 0.54 µM (active), the GI50 (SK-OV-3) was 4.21 µM (inactive) and the GI50 (SN12C) was 0.373 µM (active). For the same molecule, the GI50 (SNB-19) was 2.22 µM (inactive), the GI50 (SR) was 0.292 µM (active) and the GI50 (T47D) was 1.28 µM (inactive). For the same molecule, the GI50 (TK-10) was 1.8 µM (inactive), the GI50 (U-251) was 1.29 µM (inactive) and the GI50 (UACC-257) was 0.404 µM (active). The GI50 (UACC-62) was 0.647 µM (active) and the GI50 (UO-31) was 0.284 µM (active).
`CC1(C)OC2OC(COC(=O)C=[N+]=[N-])C3OC(C)(C)OC3C2O1` (stereo not drawn) was tested, and the GI50 (786-0) was > 100 µM (inactive), the GI50 (A498) was > 100 µM (inactive) and the GI50 (ACHN) was > 100 µM (inactive). The GI50 (BT-549) was > 100 µM (inactive), the GI50 (CAKI-1) was > 100 µM (inactive) and the GI50 (CCRF-CEM) was > 100 µM (inactive). For the same molecule, the GI50 (COLO 205) was > 100 µM (inactive), the GI50 (DU-145) was > 100 µM (inactive) and the GI50 (EKVX) was > 100 µM (inactive). The GI50 (HCC 2998) was > 100 µM (inactive), the GI50 (HCT-116) was > 100 µM (inactive) and the GI50 (HCT-15) was over 100 µM. For the same molecule, the GI50 (HL-60) was > 100 µM (inactive), the GI50 (HOP-62) was > 100 µM (inactive) and the GI50 (HOP-92) was > 100 µM (inactive). The GI50 (HT-29) was > 100 µM (inactive), the GI50 (IGROV-1) was > 100 µM (inactive) and the GI50 (K562) was > 100 µM (inactive). The GI50 (KM12) was > 100 µM (inactive), the GI50 (LOX IMVI) was > 100 µM (inactive) and the GI50 (MCF7) was > 100 µM (inactive). For the same molecule, the GI50 (MDA-MB-231) was > 100 µM (inactive), the GI50 (MDA-MB-435) was > 100 µM (inactive) and the GI50 (MDA-N) was > 100 µM (inactive). The GI50 (MOLT-4) was > 10 µM (inactive), the GI50 (Malme-3M) was > 100 µM (inactive) and the GI50 (NCI-H226) was > 100 µM (inactive). The GI50 (NCI-H23) was > 100 µM (inactive), the GI50 (NCI-H460) was > 100 µM (inactive) and the GI50 (NCI-H522) was > 100 µM (inactive). The GI50 (OVCAR-3) was > 100 µM (inactive), the GI50 (OVCAR-4) was > 100 µM (inactive) and the GI50 (OVCAR-5) was > 100 µM (inactive). For the same molecule, the GI50 (PC-3) was > 100 µM (inactive), the GI50 (RPMI-8226) was > 100 µM (inactive) and the GI50 (RXF 393) was > 100 µM (inactive). The GI50 (SF-268) was > 100 µM (inactive), the GI50 (SF-295) was > 100 µM (inactive) and the GI50 (SK-MEL-28) was > 100 µM (inactive). The GI50 (SK-MEL-2) was > 100 µM (inactive), the GI50 (SK-MEL-5) was > 100 µM (inactive) and the GI50 (SK-OV-3) was > 100 µM (inactive). The GI50 (SN12C) was > 100 µM (inactive), the GI50 (SNB-19) was > 100 µM (inactive) and the GI50 (SR) was > 100 µM (inactive). The GI50 (SW-620) was > 100 µM (inactive), the GI50 (TK-10) was > 100 µM (inactive) and the GI50 (U-251) was > 100 µM (inactive). The GI50 (UACC-257) was > 100 µM (inactive), the GI50 (UACC-62) was > 100 µM (inactive) and the GI50 (UO-31) was > 100 µM (inactive).
